Counter-ions that a name gives are not always drawn. Like-named read-outs stand apart in the source and are kept apart here.
How the values were obtained:
[1] = tested on: OC43; experiment: Drug screening: OC43 nucleoprotein staining in infected A549-mRuby cells; assay type: cell-based, human beta coronavirus OC43; details: for activity at 10 µM: Betacoronavirus 1, OC43, 96 h
Description: A549-mRuby cells were seeded (3,000 cells per well) in nine 384-well plates using Multidrop combi. Cells were seeded in a final volume of 30 μl with DMEM+10% BCS. The following day, 20 μl of OC43 were added (MOI 0.3) and incubated at 33° C., 5% CO2 for 1 hour. 50 nl from the Selleck FDA-approved drug library (cat #L1300, Selleck) were added (1:1,000 dilution). Two columns (32 wells) were left uninfected and two columns were treated with DMSO and virus (no drug control). Cells were imaged using the IncuCyte S3 to measure cell numbers at day 0. Cells were incubated for 4 days at 33° C., 5% CO2 and were stained for OC43 nucleoprotein. All the following steps were performed at room temperature. Cells were fixed in 50 μl 4% PFA/PBS for 15 min, blocked with 50 μl 10% BSA+0.5% Triton X-100 in PBS for 30 minutes, stained with 50 μl anti-OC43 (cat #MAB9013, Milipore) diluted 1:2,000 in 2% BSA+0.1% Triton X-100 in PBS for 1 hour, washed with 50 μl PBS three times, stained with anti-mouse-AlexaFluor488 diluted 1:1,000 in 2% BSA+0.1% Triton X-100 in PBS for 1 hour, washed with 50 μl PBS three times and imaged on the IncuCyte S3 (day 4). The screen was performed twice.
(§1) The following parameters were extracted from the images: number of cells at day 0, number of cells at day 4 and total OC43 staining intensity at day 4. For analysis, OC43 staining intensity was normalized to the number of cells in the well and further normalized to the mean of the no drug controls, which was set to 100. […] For each plate, a drug was considered as a putative hit if it reduced OC43 staining by over 3 standard deviations from the mean of the no drug controls. Drugs were considered hits if they were not toxic and reduced OC43 staining by over 3 standard deviations in both repeats.
(§2) A library of 1,900 clinically used drugs was screened, the drugs either approved for human use or having extensive safety data in humans (Phase 2 or 3 clinical trials), for their ability to inhibit OC43 infection of the human lung epithelial cell line A549 (expressing an H2B-mRuby nuclear reporter). One day after plating, cells were infected at an MOI of 0.3, incubated at 33° C. for 1 hour and drugs were added to a final concentration of 10 μM. Cells were then incubated at 33° C. for 4 days, fixed and stained for the presence of the viral nucleoprotein. The cells were imaged at day 0 (following drug addition) and day 4 (after staining) to determine the drugs effect on cell growth and OC43 infection.

[2] = tested on: A549-mRuby cells; experiment: Drug screening: effect on cell growth (cell number day 4 / day 0); details: 10 μM drug; for Growth_1: number of cells at day 4 divided by number of cells at day 0 / toxic_1: repeat #1; for Growth_2: number of cells at day 4 divided by number of cells at day 0 / toxic_2: repeat #2
Description: A549-mRuby cells were seeded (3,000 cells per well) in nine 384-well plates using Multidrop combi. Cells were seeded in a final volume of 30 μl with DMEM+10% BCS. The following day, 20 μl of OC43 were added (MOI 0.3) and incubated at 33° C., 5% CO2 for 1 hour. 50 nl from the Selleck FDA-approved drug library (cat #L1300, Selleck) were added (1:1,000 dilution). Two columns (32 wells) were left uninfected and two columns were treated with DMSO and virus (no drug control). Cells were imaged using the IncuCyte S3 to measure cell numbers at day 0. Cells were incubated for 4 days at 33° C., 5% CO2 and were stained for OC43 nucleoprotein. All the following steps were performed at room temperature. […] The screen was performed twice.
as §1, §2

[3] = 10 μM drug, MOI 0.3, 4 days, OC43 staining normalized to no-drug controls, mean of the two screen repeats, read-out: OC43_mean
[4] = 10 μM drug, MOI 0.3, 4 days, normalized to no-drug controls in the same plate, repeat #1, read-out: OC43_1: % staining of OC43 in screen repeat #1
[5] = 10 μM drug, MOI 0.3, 4 days, normalized to no-drug controls in the same plate, repeat #2, read-out: OC43_2: % staining of OC43 in screen repeat #2
[6] = 10 μM drug, MOI 0.3, 4 days, OC43 staining normalized to no-drug controls, mean of the two screen repeats
[7] = 10 μM drug, MOI 0.3, 4 days, normalized to no-drug controls in the same plate, repeat #1
[8] = 10 μM drug, MOI 0.3, 4 days, normalized to no-drug controls in the same plate, repeat #2

Molecule	hit_1 ([1]; 10 μM drug, repeat #1)	hit_2 ([1]; 10 μM drug, repeat #2)	activity at 10 µM [1, 3]	activity at 10 µM [1, 4]	activity at 10 µM [1, 5]	Growth_1: number of cells at day 4 divided by number of cells at day 0 [2]	toxic_1 [2]	Growth_2: number of cells at day 4 divided by number of cells at day 0 [2]	toxic_2 [2]	activity at 10 µM ([1]; read-out: OC43_mean, 10 μM drug, MOI 0.3, 4 days, OC43 staining normalized to no-drug controls, mean of the two screen repeats)	OC43_mean [1, 6]	OC43_1: % staining of OC43 in screen repeat #1 [1, 7]	OC43_2: % staining of OC43 in screen repeat #2 [1, 8]	Growth_1: number of cells at day 4 divided by number of cells at day 0 ([2]; hydrochloride)	Growth_2: number of cells at day 4 divided by number of cells at day 0 ([2]; hydrochloride)
CC(C)(O)CNc1nc(Nc2ccnc(C(F)(F)F)c2)nc(-c2cccc(C(F)(F)F)n2)n1 [Enasidenib (AG-221), Enasidenib]	1	1	26.1%	23.3%	29%	5.2	0	4.8	0	–	–	–	–	–	–
CCCc1cc(=O)[nH]c(=S)[nH]1 [Propylthiouracil]	1	1	–	44.3%	55.1%	3.7	0	4.2	0	49.7%	–	–	–	–	–
CN1CCC(=C2c3ccccc3C=Cc3ccccc32)CC1 [Cyproheptadine HCl]	1	1	27%	22.8%	31.2%	3.8	0	3.0	0	–	–	–	–	–	–
CN(C)N(C)C(=O)[C@@]1(Cc2ccccc2)CCCN(C(=O)[C@@H](Cc2c[nH]c3ccccc23)NC(=O)C(C)(C)N)C1 [Anamorelin]	1	1	38.8%	32%	45.6%	5.2	0	5.5	0	–	–	–	–	–	–
CN(C)CCC=C1c2ccccc2COc2ccccc21 [Doxepin HCl]	1	1	32.6%	29.2%	36.1%	4.9	0	5.7	0	–	–	–	–	–	–
CC[C@H]1OC(=O)[C@H](C)[C@@H](O[C@H]2C[C@@](C)(OC)[C@@H](O)[C@H](C)O2)[C@H](C)[C@@H](O[C@@H]2O[C@H](C)C[C@H](N(C)C)[C@H]2O)[C@](C)(O)C[C@@H](C)C(=O)[C@H](C)[C@@H](O)[C@]1(C)O.N#CS [Erythromycin thiocyanate]	1	1	–	–	–	4.1	0	4.6	0	–	58.7%	50.6%	66.8%	–	–
Ibutilide Fumarate	1	1	–	–	–	4.8	0	4.8	0	–	54.4%	45.9%	63.0%	–	–
C[C@@H]1[C@H](O)[C@@H](C)/C=C/C=C/CC/C=C/C=C/C=C/C=C/C(O[C@H]2O[C@H](C)[C@@H](O)[C@H](N)[C@@H]2O)CC2O[C@](O)(CC(O)C(O)CCC(O)CC(O)CC(O)CC(=O)O[C@H]1C)CC(O)C2C(=O)O (stereo partly shown) [Nystatin (Fungicidin), Nystatin]	1	1	–	–	–	4.6	0	5.9	0	–	23.3%	27.8%	18.8%	–	–
CN(C)CCC=C1c2ccccc2CCc2ccccc21 [Amitriptyline HCl]	1	1	22.8%	11.2%	34.3%	3.7	0	4.1	0	–	–	–	–	–	–
COc1cc2ncnc(Nc3ccc(F)c(Cl)c3)c2cc1OCCCN1CCOCC1 [Gefitinib hydrochloride]	1	1	23.9%	20%	27.8%	–	0	–	0	–	–	–	–	3.5	3.3
CN1CCC(COc2cnc(-c3cccc(Cn4nc(-c5cccc(C#N)c5)ccc4=O)c3)nc2)CC1 [Tepotinib (EMD 1214063), Tepotinib]	1	1	28.9%	15.3%	42.6%	5.3	0	5.2	0	–	–	–	–	–	–
CN(C)CCCOc1nn(Cc2ccccc2)c2ccccc12 [Benzydamine HCl]	1	1	25.9%	26.2%	25.6%	4.9	0	4.6	0	–	–	–	–	–	–
COc1ccccc1OCCNCC(O)COc1cccc2[nH]c3ccccc3c12 (stereo not shown) [Carvedilol]	1	1	24.6%	20.1%	29.1%	4.5	0	3.1	0	–	–	–	–	–	–
COc1ccc(CN2CCN(C(c3ccc(F)cc3)c3ccc(F)cc3)CC2)c(OC)c1OC.Cl.Cl [Lomerizine 2HCl]	1	1	–	–	–	4.7	0	5.3	0	–	39.9%	56.5%	23.3%	–	–
CN(C)CCCN1c2ccccc2Sc2ccccc21 [Promazine hydrochloride]	1	1	23%	23.4%	22.6%	4.7	0	4.7	0	–	–	–	–	–	–
C=C[C@H]1C[N@@]2CC[C@H]1C[C@@H]2[C@@H](O)c1ccnc2ccc(OC)cc12 [Quinidine sulfate]	1	1	–	25.1%	47.9%	–	–	–	–	–	–	–	–	–	–

Reference: US20230285405A1, “Pharmaceuticals for Treating or Preventing Nidoviruses and Picornaviruses” (priority 2020, published 2023)
